Experimental data reported in US20230372498A1, “PLK1 SELECTIVE DEGRADATION INDUCING COMPOUND” (UPPTHERA, priority 2020, published 2023).
Where two headings read alike, the source gives them in different places. Values belong to the molecule of their own block, whether it stands above or below them.

Biological target: T1, PLK1 (Homo sapiens, UniProt P53350)
T1 construct: endogenous in cells; host or cells: HeLa
Assay: PLK1 protein degradation in HeLa cells, Western blotting (PLK1/GAPDH ratio)
Type: cell-based
Conditions: 6 hours compound incubation; for DC50: measured only if the grade of Dmax is A or B; for Dmax: thymidine block and release, 10 points three-fold from 3 μM, PLK1 to GAPDH ratio
From the text: The HeLa cell line was purchased from Korea Cell Line Bank (KCLB), Seoul, Korea. The passage in cell culture was maintained at P115 to P125.
For cell culture, DMEM (Gibco, Cat. No. 1195-65; Lot. No. 2085318), FBS (Gibco, Cat. No. 16000-044; Lot. No. 2097593), Penicillin/Streptomycin (PS) (Gibco, Cat. No. 15140-122; Lot. No. 2058855), 100 mm^2 cell culture dish (SPL, Cat. No. 20100), 150 mm^2 cell culture dish (SPL, Cat. No. 20150), 12-well culture plate (SPL, Cat. No. 30012), PBS pH 7.4 (Gibco, Cat. No. 10010-023; Lot. No. 2085080), TrypLE™ Express (Gibco, Cat. No. 12605-010; Lot No. 2070638), Counting Chamber (Hematocytometer) (Hirschmann, Cat. No. 8100204), and 0.4% Trypan Blue Solution (DYNEBIO, Cat. No. CBT3710; Lot. No. 20190723) were used.
2×10^5 cells were seeded for each well of a 12-well plate (SPL), and the cells were cultured in the culture medium in a total volume of 2 ml.
The compounds of Examples were completely dissolved in DMSO and used in the experiment, and thymidine was completely dissolved in DW and used in the experiment. For thymidine block, the products were treated with 2 mM of thymidine (Sigma-Aldrich Cat. No. T9250-5G) and then incubated for 24 hours.
For release and chemical treatment, the medium was suctioned and washed 3 times with 1×PBS. Complete media was added, followed by incubation for 4 hours in a CO2 incubator. Each compound was diluted three folds from the highest concentration of 3 μM to the lowest concentration in 10 points and then incubated for 6 hours again.
For SDS-PAGE and Western blotting, 1×RIPA lysis buffer (Rockland, Cat. No. MB-030-0050; Lot no. 39751), 100× Protease Inhibitor Cocktail (Quartett, Cat. No. PPI1015; Lot no. PCO50038424), Pierce™ BCA protein assay kit (ThermoScientific, Cat. No. 23225; Lot no. UC276876), albumin standard (ThermoScientific, Cat. No. 23209; Lot no. UB269561), 4-15% Mini-PROTEAN TGX stain-free gel (Bio-rad, Cat. No. 4568085; Lot no. L007041B), 10× Tris/Glycine/SDS buffer (Bio-rad, Cat. No. 1610732; Lot no. 10000044375B); 10×TBS (Bio-rad, Cat. No. 1706435; Lot no. 1000045140B), 10% Tween 20 (Cat. No. 1610781; Lot no. L004152B), Color protein standard broad range (NEB, Cat. No. P7719S; Lot no. 10040349), 4× Laemmli sample buffer (Bio-rad, Cat. No. 1610747; Lot no. L004133B), β-mercaptoethanol (Sigma-Aldrich, Cat. No. M3148; Lot no. 60-24-2), SuperBlock™ T20 (TBS) blocking buffer (ThermoScientific, Cat. No. 37536; Lot no. UC282578), 1M sodium azide solution (Sigma-Aldrich, Cat. No. 08591-1 mL-F; Lot no. BCBV4989), α-Rabbit pAb to Ms IgG (abcam, Cat. No. ab97046; Lot no. GR3252115-1), α-Goat pAb to Rb IgG (CST, Cat. No. 7074S; Lot no. 28), α-GAPDH (abcam, Cat. No. ab8245; Lot no. GR3275542-2), α-Plk1 (CST, Cat. No. 208G4), α-BRD4 (CST, Cat. No. 13440S), ECL™ Prime western blotting reagents (GE Healthcare, Cat. No. RPN2232; Lot no. 17001655), Ponceau S solution (Sigma-Aldrich, Cat. No. P7170; Lot no. SLBV4112), Difco™ Skim milk (BD, Cat. No. 232100; Lot no. 8346795), and iBlot® 2 NC Regular stacks (Invitrogen, Cat. No. IB323001; Lot no. 2NR110619-02) were used.
For cell harvesting, the cells were first separated from the plate using trypsin and then washed with the medium and PBS. Specifically, the medium was suctioned off and washed with 1 mL of PBS, and PBS was suctioned off. The cells were treated with 0.5 mL TrypLE™ Express at 37° C. for 7 minutes to separate the cells, and then 0.5 mL of complete medium was added to collect 1 mL of cell culture solution. Then, 1 mL of the cell collection solution was centrifuged at 8,000 rpm for 120 seconds, and the supernatant was removed. After washing with 0.2 mL of PBS, the PBS was removed.
For cell lysis, a lysis buffer was added and cell debris was removed to obtain a cell lysate. Specifically, the cells were treated with 70 μL of 1×RIPA buffer containing a protease inhibitor and incubated for 30 minutes on ice. Then, the cells were centrifuged at 4° C. and 15,000 rpm for 10 minutes to obtain a cell lysate. […]

T1 sequence (P53350 whole entry): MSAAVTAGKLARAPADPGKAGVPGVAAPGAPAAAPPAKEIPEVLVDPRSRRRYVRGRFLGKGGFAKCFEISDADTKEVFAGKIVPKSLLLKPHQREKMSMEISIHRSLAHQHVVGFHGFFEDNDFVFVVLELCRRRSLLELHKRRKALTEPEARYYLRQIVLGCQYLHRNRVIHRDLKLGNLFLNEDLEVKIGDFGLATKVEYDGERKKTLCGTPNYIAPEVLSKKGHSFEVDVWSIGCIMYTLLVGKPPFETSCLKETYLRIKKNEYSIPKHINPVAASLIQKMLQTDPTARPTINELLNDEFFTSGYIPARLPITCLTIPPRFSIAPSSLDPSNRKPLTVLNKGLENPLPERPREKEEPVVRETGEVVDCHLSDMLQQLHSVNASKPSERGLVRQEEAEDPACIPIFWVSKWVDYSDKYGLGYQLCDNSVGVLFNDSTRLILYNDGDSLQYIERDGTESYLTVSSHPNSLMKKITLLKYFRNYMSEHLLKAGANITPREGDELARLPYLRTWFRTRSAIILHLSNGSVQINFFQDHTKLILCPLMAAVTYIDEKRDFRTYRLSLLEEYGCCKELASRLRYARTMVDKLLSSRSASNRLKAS

Structure (SMILES): COc1cc(C(=O)NC2CCN(CCOCCOCCOCCOCC(=O)N[C@H](C(=O)N3C[C@H](O)C[C@H]3C(=O)NCc3ccc(-c4scnc4C)cc3)C(C)(C)C)CC2)c(F)cc1Nc1ncc2c(n1)N(C1CCCC1)CC(F)(F)C(=O)N2C [Example 82]
Dmax: C (C: less than 60%)

Structure (SMILES): COc1cc(C(=O)NC2CCN(CCCCCCCCCCCNc3cccc4c3C(=O)N(C3CCC(=O)NC3=O)C4=O)CC2)c(F)cc1Nc1ncc2c(n1)N(C1CCCC1)CC(F)(F)C(=O)N2C (centres unmarked) [Compound 15, 4-((9-cyclopentyl-7,7-difluoro-5-methyl-6-oxo-5H,6H,7H,8H,9H-pyrimido[4,5-b][1,4]diazepin-2-yl)amino)-N-(1-(11-((2-(2,6-dioxopiperidin-3-yl)-1,3-dioxo-2,3-dihydro-1H-isoindol-4-yl)amino)undecyl)piperidin-4-yl)-2-fluoro-5-methoxybenzamide]
DC50: > 0.5 µM
Dmax (read-out: Dmax): 60 to 80%

Structure (SMILES): COc1cc(C(=O)NC2CCN(CCOCCOCCOCCOCCNc3cccc4c3C(=O)N(C3CCC(=O)N(C)C3=O)C4=O)CC2)c(F)cc1Nc1ncc2c(n1)N(C1CCCC1)CC(F)(F)C(=O)N2C (centres unmarked) [Compound 7, 4-((9-cyclopentyl-7,7-difluoro-5-methyl-6-oxo-6,7,8,9-tetrahydro-5H-pyrimido[4,5-b][1,4]diazepin-2-yl)amino)-2-fluoro-5-methoxy-N-(1-(14-((2-(1-methyl-2,6-dioxopiperidin-3-yl)-1,3-dioxoisoindolin-4-yl)amino)-3,6,9,12-tetraoxatetradecyl)piperidin-4-yl)benzamide]
Dmax (read-out: Dmax): < 60%

Structure (SMILES): COc1cc(C(=O)N[C@@H]2CCN(C(=O)CCCCCNc3cccc4c3C(=O)N(C3CCC(=O)NC3=O)C4=O)C2)c(F)cc1Nc1ncc2c(n1)N(C1CCCC1)CC(F)(F)C(=O)N2C (stereo partly drawn) [Compound 120, 4-((9-cyclopentyl-7,7-difluoro-5-methyl-6-oxo-6,7,8,9-tetrahydro-5H-pyrimido[4,5-b][1,4]diazepin-2-yl)amino)-N-((3R)-1-(6-((2-(2,6-dioxopiperidin-3-yl)-1,3-dioxoisoindolin-4-yl)amino)hexanoyl)pyrrolidin-3-yl)-2-fluoro-5-methoxybenzamide]
DC50: ≤ 0.05 µM
Dmax (read-out: Dmax): ≥ 80%

Structure (SMILES): COc1cc(C(=O)NC2CCN(CCCCCNc3cccc4c3C(=O)N(C3CCC(=O)NC3=O)C4=O)CC2)c(F)cc1Nc1ncc2c(n1)N(C1CCCC1)CC(F)(F)C(=O)N2C (centres unmarked) [Compound 9, 4-((9-cyclopentyl-7,7-difluoro-5-methyl-6-oxo-6,7,8,9-tetrahydro-5H-pyrimido[4,5-b][1,4]diazepin-2-yl)amino)-N-(1-(5-((2-(2,6-dioxopiperidin-3-yl)-1,3-dioxoisoindolin-4-yl)amino)pentyl)piperidin-4-yl)-2-fluoro-5-methoxybenzamide]
DC50: ≤ 0.5 µM
Dmax (read-out: Dmax): 60 to 80%

More lines, now with the values ahead:

DC50: ≤ 0.05 µM
Dmax (read-out: Dmax): ≥ 80%
Structure (SMILES): COc1cc(C(=O)NC2CCN(CCOCCOCCOCCOCCNc3cccc4c3C(=O)N(C3CCC(=O)NC3=O)C4=O)C2)c(F)cc1Nc1ncc2c(n1)N(C1CCCC1)CC(F)(F)C(=O)N2C (centres unmarked) [Example 108, 4-((9-cyclopentyl-7,7-difluoro-5-methyl-6-oxo-6,7,8,9-tetrahydro-5H-pyrimido[4,5-b][1,4]diazepin-2-yl)amino)-N-(1-(14-((2-(2,6-dioxopiperidin-3-yl)-1,3-dioxoisoindolin-4-yl)amino)-3,6,9,12-tetraoxatetradecyl)pyrrolidin-3-yl)-2-fluoro-5-methoxybenzamide]

DC50: ≤ 0.05 µM
Dmax (read-out: Dmax): ≥ 80%
Structure (SMILES): COc1cc(C(=O)NCCOCCCOCCNc2cccc3c2C(=O)N(C2CCC(=O)NC2=O)C3=O)c(F)cc1Nc1ncc2c(n1)N(C1CCCC1)CC(F)(F)C(=O)N2C (centres unmarked) [Compound 156, 4-((9-cyclopentyl-7,7-difluoro-5-methyl-6-oxo-6,7,8,9-tetrahydro-5H-pyrimido[4,5-b][1,4]diazepin-2-yl)amino)-N-(2-(3-(2-((2-(2,6-dioxopiperidin-3-yl)-1,3-dioxoisoindolin-4-yl)amino)ethoxy)propoxy)ethyl)-2-fluoro-5-methoxybenzamide]

DC50: ≤ 0.05 µM
Dmax (read-out: Dmax): ≥ 80%
Structure (SMILES): COc1cc(C(=O)NC2CCN(C(=O)CCOCCNc3cccc4c3C(=O)N(C3CCC(=O)NC3=O)C4=O)C2)c(F)cc1Nc1ncc2c(n1)N(C1CCCC1)CC(F)(F)C(=O)N2C (centres unmarked) [Compound 114, 4-((9-cyclopentyl-7,7-difluoro-5-methyl-6-oxo-6,7,8,9-tetrahydro-5H-pyrimido[4,5-b][1,4]diazepin-2-yl)amino)-N-(1-(3-(2-((2-(2,6-dioxopiperidin-3-yl)-1,3-dioxoisoindolin-4-yl)amino)ethoxy)propanoyl)pyrrolidin-3-yl)-2-fluoro-5-methoxybenzamide]

DC50: ≤ 0.05 µM
Dmax (read-out: Dmax): ≥ 80%
Structure (SMILES): COc1cc(C(=O)NC2CCN(CCOCCCOCCNc3cccc4c3C(=O)N(C3CCC(=O)NC3=O)C4=O)CC2)c(F)cc1Nc1ncc2c(n1)N(C1CCCC1)CC(F)(F)C(=O)N2C (centres unmarked) [Compound 21, 4-((9-cyclopentyl-7,7-difluoro-5-methyl-6-oxo-6,7,8,9-tetrahydro-5H-pyrimido[4,5-b][1,4]diazepin-2-yl)amino)-N-(1-(2-(3-(2-((2-(2,6-dioxopiperidin-3-yl)-1,3-dioxoisoindolin-4-yl)amino)ethoxy)propoxy)ethyl)piperidin-4-yl)-2-fluoro-5-methoxybenzamide]

DC50: ≤ 0.05 µM
Dmax (read-out: Dmax): ≥ 80%
Structure (SMILES): COc1cc(C(=O)NC2CCN(CCOCCOCCOCCOCCNc3cccc4c3C(=O)N(C3CCC(=O)NC3=O)C4=O)CC2)c(F)cc1Nc1ncc2c(n1)N(C1CCCC1)CC(F)(F)C(=O)N2C (centres unmarked) [Compound 4, 4-((9-cyclopentyl-7,7-difluoro-5-methyl-6-oxo-6,7,8,9-tetrahydro-5H-pyrimido[4,5-b][1,4]diazepin-2-yl)amino)-N-(1-(14-((2-(2,6-dioxopiperidin-3-yl)-1,3-dioxoisoindolin-4-yl)amino)-3,6,9,12-tetraoxatetradecyl)piperidin-4-yl)-2-fluoro-5-methoxybenzamide]

DC50: ≤ 0.05 µM
Dmax (read-out: Dmax): ≥ 80%
Structure (SMILES): COc1cc(C(=O)NC2CCN(C(=O)CCN3CCN(c4cccc5c4C(=O)N(C4CCC(=O)NC4=O)C5=O)CC3)CC2)ccc1Nc1ncc2c(n1)N(C1CCCC1)CC(F)(F)C(=O)N2C (centres unmarked) [Compound 128, 4-((9-cyclopentyl-7,7-difluoro-5-methyl-6-oxo-6,7,8,9-tetrahydro-5H-pyrimido[4,5-b][1,4]diazepin-2-yl)amino)-N-(1-(3-(4-(2-(2,6-dioxopiperidin-3-yl)-1,3-dioxoisoindolin-4-yl)piperazin-1-yl)propanoyl)piperidin-4-yl)-3-methoxybenzamide]
